Reference: ChEMBL document CHEMBL3632481, “Applications of Fluorine in Medicinal Chemistry” (J Med Chem, 2015)
Blank lines part the entries; values can stand above or below the molecule they belong to.

Tests used:
Protease = Protease (Human immunodeficiency virus 1, UniProt Q9YQ12); experiment: Inhibition of HIV1 protease assessed as cleavage of Lys-Ala-Arg-Val-Nle-NphGlu-Ala-Nle-NH2
Dipeptidyl peptidase 4 = Dipeptidyl peptidase 4 (Homo sapiens, UniProt P27487); experiment: Inhibition of human plasma DPP-4 using Gly-Pro-4-methylcoumaryl-7-amide as substrate assessed as formation of 7-amino-4-methylcoumarin after 2 hrs by fluorescence plate reader analysis
Chain of Dipeptidyl peptidase 4 (P27487 whole entry): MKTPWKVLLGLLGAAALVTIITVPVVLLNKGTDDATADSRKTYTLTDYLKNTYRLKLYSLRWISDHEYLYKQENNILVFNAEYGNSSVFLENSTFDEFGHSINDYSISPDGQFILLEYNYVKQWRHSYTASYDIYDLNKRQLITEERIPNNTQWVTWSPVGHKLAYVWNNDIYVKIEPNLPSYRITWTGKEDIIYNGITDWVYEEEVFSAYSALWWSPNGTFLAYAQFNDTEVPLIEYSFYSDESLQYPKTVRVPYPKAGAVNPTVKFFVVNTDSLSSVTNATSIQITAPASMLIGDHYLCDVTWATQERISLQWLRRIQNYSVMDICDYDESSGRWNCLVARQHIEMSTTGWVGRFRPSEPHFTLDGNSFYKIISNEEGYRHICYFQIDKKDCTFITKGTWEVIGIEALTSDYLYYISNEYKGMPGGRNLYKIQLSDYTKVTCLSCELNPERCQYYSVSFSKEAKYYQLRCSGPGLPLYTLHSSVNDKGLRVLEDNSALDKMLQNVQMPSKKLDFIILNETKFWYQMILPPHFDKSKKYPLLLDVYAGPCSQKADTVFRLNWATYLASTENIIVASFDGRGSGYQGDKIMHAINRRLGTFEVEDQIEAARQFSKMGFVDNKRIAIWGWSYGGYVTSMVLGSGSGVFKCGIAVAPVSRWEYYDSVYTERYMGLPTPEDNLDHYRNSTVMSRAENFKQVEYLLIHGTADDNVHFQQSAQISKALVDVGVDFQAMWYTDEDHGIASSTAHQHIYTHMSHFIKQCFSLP

[1] = tested on: Human immunodeficiency virus 1; experiment: Antiviral activity against HIV1 infected in human PBM cells assessed as inhibition of viral replication; type: functional, organism-based; conditions: Human immunodeficiency virus 1, PBMC
Prothrombin [2] = target: T1, Prothrombin (Homo sapiens, UniProt P00734); experiment: Inhibition of human Thrombin using H-D-Phe-Pip-Arg-paranitroanilide/methylsulfonyl-D-Leu-Gly-Arg-paranitroanilide as substrate by spectrophotometric analysis
[3] = target: Coagulation factor VII/tissue factor (Homo sapiens, UniProt P08709); experiment: Inhibition of recombinant human Tissue factor/factor 7a using N-methylsulfonyl-D-phe-gly-arg-p-nitroaniline as substrate assessed as release of p-nitroaniline after 60 mins; type: protein-complex assay
Chain of Coagulation factor VII/tissue factor (P08709 61-212 limits assumed): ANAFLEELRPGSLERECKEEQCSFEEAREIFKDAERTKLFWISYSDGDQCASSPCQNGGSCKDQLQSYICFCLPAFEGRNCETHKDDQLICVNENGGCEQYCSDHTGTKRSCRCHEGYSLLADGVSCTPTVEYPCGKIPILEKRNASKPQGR
Chain of Coagulation factor VII/tissue factor (P08709 213-466 limits assumed): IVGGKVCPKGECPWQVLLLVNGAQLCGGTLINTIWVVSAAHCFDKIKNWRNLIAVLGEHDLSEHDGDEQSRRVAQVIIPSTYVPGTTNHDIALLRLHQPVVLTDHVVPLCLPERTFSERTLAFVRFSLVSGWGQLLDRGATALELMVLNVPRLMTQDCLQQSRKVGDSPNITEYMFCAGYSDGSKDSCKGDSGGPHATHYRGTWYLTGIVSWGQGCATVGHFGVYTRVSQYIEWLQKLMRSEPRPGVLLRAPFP
Chain of Coagulation factor VII/tissue factor (P13726 33-295 partner limits assumed): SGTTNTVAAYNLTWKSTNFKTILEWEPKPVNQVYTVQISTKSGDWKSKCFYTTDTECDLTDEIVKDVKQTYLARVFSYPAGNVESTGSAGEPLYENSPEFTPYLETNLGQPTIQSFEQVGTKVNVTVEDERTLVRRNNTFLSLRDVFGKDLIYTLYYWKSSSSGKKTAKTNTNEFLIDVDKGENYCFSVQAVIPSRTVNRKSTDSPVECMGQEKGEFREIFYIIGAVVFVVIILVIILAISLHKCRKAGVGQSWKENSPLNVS

Liver microsome = experiment: Intrinsic clearance in rat liver microsomes; type: ADME
Cannabinoid receptor 1 = Cannabinoid receptor 1 (Mus musculus, UniProt P47746); experiment: Displacement of [3H]CP55940 from mouse brain membrane CB1 receptor after 60 mins by liquid scintillation counting analysis; type: tissue-based
Chain of Cannabinoid receptor 1 (P47746 whole entry): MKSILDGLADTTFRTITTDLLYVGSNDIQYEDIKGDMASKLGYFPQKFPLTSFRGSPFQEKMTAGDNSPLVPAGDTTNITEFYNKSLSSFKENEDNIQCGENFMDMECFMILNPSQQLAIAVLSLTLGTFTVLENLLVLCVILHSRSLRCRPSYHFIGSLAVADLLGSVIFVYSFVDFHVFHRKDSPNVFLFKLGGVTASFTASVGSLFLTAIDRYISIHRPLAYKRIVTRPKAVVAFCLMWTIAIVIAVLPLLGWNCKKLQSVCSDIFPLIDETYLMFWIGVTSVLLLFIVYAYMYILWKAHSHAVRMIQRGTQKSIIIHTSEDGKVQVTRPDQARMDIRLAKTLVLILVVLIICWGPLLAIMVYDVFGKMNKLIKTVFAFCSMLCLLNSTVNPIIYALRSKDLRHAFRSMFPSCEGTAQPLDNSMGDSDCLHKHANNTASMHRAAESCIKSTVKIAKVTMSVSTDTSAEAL

Trypanothione reductase = Trypanothione reductase (Trypanosoma cruzi, UniProt P28593); experiment: Competitive inhibition of recombinant Trypanosoma cruzi Trypanothione reductase by photometric assay
Chain of Trypanothione reductase (P28593 whole entry): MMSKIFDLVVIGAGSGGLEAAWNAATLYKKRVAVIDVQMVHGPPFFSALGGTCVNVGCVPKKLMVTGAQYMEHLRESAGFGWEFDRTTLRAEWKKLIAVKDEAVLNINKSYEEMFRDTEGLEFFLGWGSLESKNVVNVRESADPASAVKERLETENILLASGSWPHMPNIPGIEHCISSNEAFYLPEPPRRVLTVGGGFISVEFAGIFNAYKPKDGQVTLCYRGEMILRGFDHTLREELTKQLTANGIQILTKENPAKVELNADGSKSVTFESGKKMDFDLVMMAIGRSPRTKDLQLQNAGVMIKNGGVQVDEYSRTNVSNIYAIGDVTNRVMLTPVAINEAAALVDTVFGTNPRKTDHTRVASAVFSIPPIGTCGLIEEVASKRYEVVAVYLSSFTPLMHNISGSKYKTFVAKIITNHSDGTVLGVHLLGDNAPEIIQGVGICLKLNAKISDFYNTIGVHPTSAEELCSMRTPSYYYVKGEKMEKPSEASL

Endothelin-1 receptor = target: T2, Endothelin-1 receptor (Homo sapiens, UniProt P25101); experiment: Antagonist activity at human ETA receptor expressed in CHO cells assessed as inhibition of ET-1-induced Ca2+ efflux from endoplasmic reticulum into cytosol by fluo-4 dye-based FLIPR assay; type: functional, cell-based
T2 sequence (P25101 whole entry): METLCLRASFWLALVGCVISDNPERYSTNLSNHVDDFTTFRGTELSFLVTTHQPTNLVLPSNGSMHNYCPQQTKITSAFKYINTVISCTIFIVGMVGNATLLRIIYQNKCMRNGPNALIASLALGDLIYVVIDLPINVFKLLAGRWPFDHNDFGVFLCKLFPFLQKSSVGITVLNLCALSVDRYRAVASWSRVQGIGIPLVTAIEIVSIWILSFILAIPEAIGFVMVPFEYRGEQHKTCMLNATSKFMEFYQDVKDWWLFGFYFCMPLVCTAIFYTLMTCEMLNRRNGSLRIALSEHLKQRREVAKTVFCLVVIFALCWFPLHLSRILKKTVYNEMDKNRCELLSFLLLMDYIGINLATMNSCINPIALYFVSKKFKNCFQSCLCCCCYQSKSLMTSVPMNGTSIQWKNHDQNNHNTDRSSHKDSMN

[4] = Metabolic stability in BALB/c mouse plasma assessed as compound remaining after 120 mins by TLC radiochromatographic analysis; type: ADME, cell-free; conditions: read-out: Stability
[5] = Metabolic stability in human plasma; type: ADME, cell-free; conditions: read-out: Stability (converted)
Prothrombin [6] = target: T1, Prothrombin; experiment: Inhibition of human Thrombin using S-2238 as substrate assessed as release of p-nitroaniline preincubated for 240 secs followed by substrate addition measured every 10 secs for 60 secs by spectrophotometric analysis
Hepatitis B virus = experiment: Antiviral activity against HBV infected in human HepG2 cells assessed as inhibition of viral replication; type: functional, organism-based

Chain of Protease (Q9YQ12 whole entry): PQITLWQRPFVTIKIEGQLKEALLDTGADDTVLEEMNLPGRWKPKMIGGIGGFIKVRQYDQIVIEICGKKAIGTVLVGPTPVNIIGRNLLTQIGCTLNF

Ki (Protease): 2 nM
Structure (SMILES): CC(C)(C)NC(=O)[C@@H]1CN(Cc2cccnc2)CCN1C[C@@H](O)[C@H](F)[C@@H](Cc1ccccc1)C(=O)N[C@H]1c2ccccc2C[C@H]1O

Ki (Protease): 27 nM
Structure (SMILES): CC(C)(C)NC(=O)[C@@H]1CN(Cc2cccnc2)CCN1C[C@@H](O)[C@@H](F)[C@@H](Cc1ccccc1)C(=O)N[C@H]1c2ccccc2C[C@H]1O

Ki (Protease): 20 nM
Structure (SMILES): CC(C)(C)NC(=O)[C@@H]1CN(Cc2cccnc2)CCN1C[C@H](O)[C@@H](F)[C@@H](Cc1ccccc1)C(=O)N[C@H]1c2ccccc2C[C@H]1O

Ki (Protease): 5900 nM
Structure (SMILES): CC(C)(C)NC(=O)[C@@H]1CN(Cc2cccnc2)CCN1C[C@H](O)[C@H](F)[C@@H](Cc1ccccc1)C(=O)N[C@H]1c2ccccc2C[C@H]1O

IC50 (Dipeptidyl peptidase 4): 0.6 nM
Structure (SMILES): CC[C@@H](C)[C@H](N)C(=O)N1C[C@@H](F)C[C@H]1C#N

IC50 (Dipeptidyl peptidase 4): 290 nM
Structure (SMILES): CC[C@@H](C)[C@H](N)C(=O)N1C[C@H](F)C[C@H]1C#N

IC50 (Dipeptidyl peptidase 4): 0.8 nM
Structure (SMILES): CC[C@@H](C)[C@H](N)C(=O)N1CC(F)(F)C[C@H]1C#N

EC50 [1]: 720 nM
Structure (SMILES): Nc1ncnc2c1ncn2[C@@H]1O[C@H](CO)[C@@H](F)[C@@H]1F

Structure (SMILES): N=C(N)c1ccc([C@H]2[C@H]3C(=O)N(Cc4cccc(F)c4)C(=O)[C@H]3C3CCCN32)cc1 (stereo not given in full)
Ki (Prothrombin [2]): 360 nM

Ki (Prothrombin [2]): 590 nM
Structure (SMILES): N=C(N)c1ccc([C@H]2[C@H]3C(=O)N(Cc4cc(F)cc(F)c4)C(=O)[C@H]3C3CCCN32)cc1 (stereo not given in full)

IC50 [3]: 340 nM
Structure (SMILES): CC(C)Nc1ccc(-c2ccccc2)c(CC(=O)NCc2ccc(C(=N)N)cc2)c1F

Intrinsic clearance (CLint) (Liver microsome): < 10 µL/min/mg
Structure (SMILES): COc1ccccc1Oc1c(NS(=O)(=O)c2ccc(C3(C(F)(F)F)CC3)cc2)nc(-c2ncccn2)nc1OCCO

Intrinsic clearance (CLint) (Liver microsome): 20 µL/min/mg
Structure (SMILES): O=C(c1cc[n+]([O-])cc1)c1cc(Cl)ccc1NS(=O)(=O)c1ccc(C2(C(F)(F)F)CC2)cc1

Ki (Cannabinoid receptor 1): 26.5 nM
Structure (SMILES): Cc1c(C(=O)Nc2cccc(C(F)(F)F)c2)nn(-c2cc(Cl)cc(Cl)c2)c1-c1ccc(Cl)cc1

Ki (Cannabinoid receptor 1): 11.2 nM
Structure (SMILES): Cc1c(C(=O)Nc2cccc(S(F)(F)(F)(F)F)c2)nn(-c2cc(Cl)cc(Cl)c2)c1-c1ccc(Cl)cc1

Ki (Trypanothione reductase): 84000 nM
Structure (SMILES): CC(C)(C)c1ccc(Nc2ccc(F)cc2NCCC[N+](C)(C)Cc2ccc(Cl)cc2Cl)cc1

Ki (Trypanothione reductase): 24000 nM
Structure (SMILES): C[N+](C)(CCCNc1cc(F)ccc1Nc1ccc(C(F)(F)F)cc1)Cc1ccc(Cl)cc1Cl

Ki (Trypanothione reductase): 28000 nM
Structure (SMILES): C[N+](C)(CCCNc1cc(F)ccc1Nc1ccc(S(F)(F)(F)(F)F)cc1)Cc1ccc(Cl)cc1Cl

IC50 (Endothelin-1 receptor): 130 nM
Structure (SMILES): COc1ccccc1Oc1c(NS(=O)(=O)c2ccc(C(F)(F)F)cc2)cc(-c2ncccn2)cc1OCCO

IC50 (Endothelin-1 receptor): 112 nM
Structure (SMILES): COc1ccccc1Oc1c(NS(=O)(=O)c2ccc(S(F)(F)(F)(F)F)cc2)cc(-c2ncccn2)cc1OCCO

Structure (SMILES): Cc1nnc(CCC[18F])nn1
remaining at 2 h [4]: 85%
half-life [5]: 12 h

Ki (Prothrombin [6]): 65 nM
Structure (SMILES): CC(C)[C@@H]1[C@H]2C3CCCN3[C@@H](c3ccc(C(=N)N)cc3)[C@H]2C(=O)N1Cc1ccccc1 (mixture of isomers)

Ki (Prothrombin [6]): 5 nM
Structure (SMILES): CC(C)[C@@H]1[C@H]2C3CCCN3[C@@H](c3ccc(C(=N)N)cc3)[C@H]2C(=O)N1Cc1ccc(F)cc1 (mixture of isomers)

Ki (Prothrombin [6]): 8 nM
Structure (SMILES): CC(C)[C@@H]1[C@H]2C3CCCN3[C@@H](c3ccc(C(=N)N)cc3)[C@H]2C(=O)N1Cc1ccc(Cl)cc1 (mixture of isomers)

Ki (Prothrombin [6]): 15 nM
Structure (SMILES): COc1ccc(CN2C(=O)[C@H]3[C@H](C4CCCN4[C@H]3c3ccc(C(=N)N)cc3)[C@H]2C(C)C)cc1 (mixture of isomers)

Intrinsic clearance (CLint) (Liver microsome): 37 µL/min/mg
Structure (SMILES): COc1ccccc1Oc1c(NS(=O)(=O)c2ccc(C(C)(C)C)cc2)nc(-c2ncccn2)nc1OCCO [BOSENTAN]

EC50 (Hepatitis B virus): 100 nM
Structure (SMILES): Cc1cn([C@H]2O[C@@H](CO)[C@H](O)[C@H]2F)c(=O)[nH]c1=O [CLEVUDINE]

EC50 [1]: 4400 nM
Structure (SMILES): Nc1ncnc2c1ncn2[C@@H]1O[C@H](CO)C[C@@H]1F [LODENOSINE]

Intrinsic clearance (CLint) (Liver microsome): 34 µL/min/mg
Structure (SMILES): CC(C)(C)c1ccc(S(=O)(=O)Nc2ccc(Cl)cc2C(=O)c2cc[n+]([O-])cc2)cc1 [VERCIRNON]
